This passage reports EC50 results from PMC9031249, “New 3-Acyl Tetramic Acid Derivatives from the Deep-Sea-Derived Fungus Lecanicillium fusisporum” (Marine Drugs, 2022).

The first experiment has as its system NF-κB. The experiment can be described thus: NF-κB luciferase reporter assay in LPS-induced RAW264.7 cells. Format: cell-based. The note with it: LPS induced RAW264.7 cells stably transfected with NF-κB luciferase reporter; treated 4 h, then LPS 100 ng/mL for 6 h; read-out: EC50, inhibition of NF-κB production. As to the method:
The effects of 1–8 on LPS-induced NF-κB luciferase activity were detected by luciferase reporter gene assay as described earlier. Briefly, RAW264.7 cells, stably transfected with a NF-κB luciferase reporter construct, were treated with 1–8 (30 μM) and BAY11-7082 (NF-κB inhibitor, 5 μM) for 4 h, followed by stimulation with LPS (100 ng/mL^−1) for 6 h. The luciferase activity was determined using the luciferase assay system (Promega, Madison, WI, USA). The dose-dependent effects of 1–8 and BAY11-7082 on LPS induced NF-κB luciferase activity were detected by the same assay.
For orientation: Reporter assays use an easily measured gene product as a stand-in for the process of interest.
One may read the EC50 as the concentration at which the effect is half-maximal. `COC1CC(C2(O)C(=O)NC(=C(C)C)C2=O)CC(C)O1` (stereo not drawn) [Compound 6, Lecanicilliumin F]: the EC50 was determined as 24.7 ± 1.19 µM.

Take `CC(C)=C1NC(=O)C(O)(C2C=CCC(C)O2)C1=O` (stereo not drawn) [Compound 2, Lecanicilliumin B]: the EC50 was found to be 25.8 ± 1.3 µM.

As to `Cc1ccc(S(=O)(=O)/C=C/C#N)cc1` [BAY11-7082, reference compound], the 50% effective concentration (EC50) was 1.5 ± 1.4 µM.

Staying with this experiment, now noted: Mus musculus, RAW264.7, LPS induced RAW264.7 cells stably transfected with NF-κB luciferase reporter; treated 4 h, then LPS 100 ng/mL for 6 h; read-out: EC50, inhibition of NF-κB production.
Regarding `CC(C)=C1NC(=O)C(O)(C2C=CCC(C)O2)C1=O` (stereo not drawn) [Compound 1, Lecanicilliumin A], the EC50 is 18.5 ± 1.21 µM.

Regarding `COC1CC(C2(O)C(=O)NC(=C(C)C)C2=O)CC(C)O1` (stereo not drawn) [Compound 5, Lecanicilliumin E], the EC50 stood at 23.1 ± 1.26 µM.

`CC(C)=C1NC(=O)C(O)(CC=CCC(C)O)C1=O` (stereo not drawn) [Compound 7, Lecanicilliumin G]: the EC50 was 26.5 ± 1.12 µM.

Another experiment relates to NO production in LPS-induced RAW264.7 cells.
Assay: not given
Further details: method as in PMID 24016057, PMID 27976895. Particulars: read-out: EC50, inhibition of NO production; cited from earlier work.
As for `C/C=C/C1=CC=C/C(=C2\C(=O)CNC2=O)O1` [Vermelhotin], the EC50 was 5.35 µM.

For pseurotin G, the half-maximal effective concentration (EC50) is 57 µM.

For pseurotin A3, the 50% effective concentration (EC50) was 34.5 µM.
